Tests used:
[1] = Compatibility studies of active compound with excipients, forced degradation, total related substances by HPLC; assay type: physicochemical
Method: (§1) The role of excipients and water content was evaluated by conducting compatibility studies of active compound with various excipients, in different proportions and evaluating the extent of degradation by forced degradation at 60° C. over the period of 2 weeks and at 50° C. for 4 weeks. The water content was analyzed using Karl Fischer method and the total related substances (% w/w) were determined by HPLC method.

[2] = Water content by Karl Fischer method in the compatibility studies; assay type: physicochemical
Method: as §1

[3] = with Aerosol, Drug:Excipient 1:0.1
[4] = with Croscarmellose sodium, Drug:Excipient 1:0.5
[5] = with Cross povidone, Drug:Excipient 1:0.5
[6] = with Dicalcium phosphate, Drug:Excipient 1:2^
[7] = with Dicalcium phosphate, Drug:Excipient 1:10
[8] = with Hydroxypropyl methylcellulose 5 cps, Drug:Excipient 1:0.5
[9] = with Mg. Stearate, Drug:Excipient 1:0.1
[10] = with Micro crystalline cellulose, Drug:Excipient 1:10
[11] = with Microcrystalline cellulose, Drug:Excipient 1:2^
[12] = with Opadry ®, Drug:Excipient 1:0.5
[13] = with Pearlitol, Drug:Excipient 1:2^
[14] = with Pearlitol, Drug:Excipient 1:10
[15] = with Polyethylene glycol 400, Drug:Excipient 1:0.1
[16] = with Polyvinyl pyrrolidone K 30, Drug:Excipient 1:0.5
[17] = with Sodium lauryl sodium, Drug:Excipient 1:0.5
[18] = with Sodium starch glycolate, Drug:Excipient 1:0.5
[19] = with Starch, Drug:Excipient 1:2^
[20] = with Starch, Drug:Excipient 1:10
[21] = with Talc, Drug:Excipient 1:0.1
[22] = with Titanium dioxide, Drug:Excipient 1:0.5

## CC(C)(N)CNC(=O)C[C@H]1CC[C@]2(CC1)OOC1(O2)C2CC3CC(C2)CC1C3.O=C(O)/C=C\C(=O)O (stereo partly drawn) [Active compound I, cis-adamantane-2-spiro-3′-8′-[[[(2′-amino-2′-methylpropyl)amino]carbonyl]-methyl]-1′,2′,4′-trioxaspiro[4.5]decane hydrogen maleate]
[1]; Microcrystalline cellulose
  Compatibility with excipient: most satisfactory results
[1]; Starch, when used in higher amounts
  Compatibility with excipient: incompatible
[1]; dicalcium phosphate, at 60° C.
  Compatibility with excipient: increase in related substances
[1]; lactose, degradation by other mechanisms such as Maillard reaction
  Compatibility with excipient: incompatible
[1]; [3]
  Total Related Substance (% w/w) After 2 weeks/60° C.: 0.86 % w/w
  Total Related Substance (% w/w) After 4 weeks/50° C.: 0.66 % w/w
  Total Related Substance (% w/w) Initial: 0.14 % w/w
[1]; [4]
  Total Related Substance (% w/w) After 2 weeks/60° C.: 0.35 % w/w
  Total Related Substance (% w/w) After 4 weeks/50° C.: 0.34 % w/w
  Total Related Substance (% w/w) Initial: 0.09 % w/w
[1]; [5]
  Total Related Substance (% w/w) After 2 weeks/60° C.: 0.68 % w/w
  Total Related Substance (% w/w) After 4 weeks/50° C.: 0.40 % w/w
  Total Related Substance (% w/w) Initial: 0.13 % w/w
[1]; [6]
  Total Related Substance (% w/w) After 2 weeks/60° C.: 1.32 % w/w
  Total Related Substance (% w/w) After 4 weeks/50° C.: 0.77 % w/w
  Total Related Substance (% w/w) Initial: 0.07 % w/w
[1]; [7]
  Total Related Substance (% w/w) After 2 weeks/60° C.: 6.07 % w/w
  Total Related Substance (% w/w) After 4 weeks/50° C.: 0.61 % w/w
  Total Related Substance (% w/w) Initial: 0.17 % w/w
[1]; [8]
  Total Related Substance (% w/w) After 2 weeks/60° C.: 1.05 % w/w
  Total Related Substance (% w/w) After 4 weeks/50° C.: 0.70 % w/w
  Total Related Substance (% w/w) Initial: 0.17 % w/w
[1]; [9]
  Total Related Substance (% w/w) After 2 weeks/60° C.: 0.86 % w/w
  Total Related Substance (% w/w) After 4 weeks/50° C.: 0.65 % w/w
  Total Related Substance (% w/w) Initial: 0.13 % w/w
[1]; [10]
  Total Related Substance (% w/w) After 2 weeks/60° C.: 1.02 % w/w
  Total Related Substance (% w/w) After 4 weeks/50° C.: 0.78 % w/w
  Total Related Substance (% w/w) Initial: 0.39 % w/w
[1]; [11]
  Total Related Substance (% w/w) After 2 weeks/60° C.: 0.74 % w/w
  Total Related Substance (% w/w) After 4 weeks/50° C.: 0.70 % w/w
  Total Related Substance (% w/w) Initial: 0.19 % w/w
[1]; [12]
  Total Related Substance (% w/w) After 2 weeks/60° C.: 0.96 % w/w
  Total Related Substance (% w/w) After 4 weeks/50° C.: 1.85 % w/w
  Total Related Substance (% w/w) Initial: 0.17 % w/w
[1]; [13]
  Total Related Substance (% w/w) After 2 weeks/60° C.: 0.77 % w/w
  Total Related Substance (% w/w) After 4 weeks/50° C.: 0.72 % w/w
  Total Related Substance (% w/w) Initial: 0.14 % w/w
[1]; [14]
  Total Related Substance (% w/w) After 2 weeks/60° C.: 0.70 % w/w
  Total Related Substance (% w/w) After 4 weeks/50° C.: 0.46 % w/w
  Total Related Substance (% w/w) Initial: 0.14 % w/w
[1]; [15]
  Total Related Substance (% w/w) After 2 weeks/60° C.: 0.68 % w/w
  Total Related Substance (% w/w) After 4 weeks/50° C.: 0.66 % w/w
  Total Related Substance (% w/w) Initial: 0.14 % w/w
[1]; [16]
  Total Related Substance (% w/w) After 2 weeks/60° C.: 0.79 % w/w
  Total Related Substance (% w/w) After 4 weeks/50° C.: 0.33 % w/w
  Total Related Substance (% w/w) Initial: 0.00 % w/w
[1]; [17]
  Total Related Substance (% w/w) After 2 weeks/60° C.: 1.59 % w/w
  Total Related Substance (% w/w) After 4 weeks/50° C.: 0.92 % w/w
  Total Related Substance (% w/w) Initial: 0.15 % w/w
[1]; [18]
  Total Related Substance (% w/w) After 2 weeks/60° C.: 0.89 % w/w
  Total Related Substance (% w/w) After 4 weeks/50° C.: 0.43 % w/w
  Total Related Substance (% w/w) Initial: 0.13 % w/w
[1]; [19]
  Total Related Substance (% w/w) After 2 weeks/60° C.: 0.74 % w/w
  Total Related Substance (% w/w) After 4 weeks/50° C.: 0.60 % w/w
  Total Related Substance (% w/w) Initial: 0.08 % w/w
[1]; [20]
  Total Related Substance (% w/w) After 2 weeks/60° C.: 4.13 % w/w
  Total Related Substance (% w/w) After 4 weeks/50° C.: 0.60 % w/w
  Total Related Substance (% w/w) Initial: 0.07 % w/w
[1]; [21]
  Total Related Substance (% w/w) After 2 weeks/60° C.: 0.90 % w/w
  Total Related Substance (% w/w) After 4 weeks/50° C.: 0.63 % w/w
  Total Related Substance (% w/w) Initial: 0.15 % w/w
[1]; [22]
  Total Related Substance (% w/w) After 2 weeks/60° C.: 0.93 % w/w
  Total Related Substance (% w/w) After 4 weeks/50° C.: 0.57 % w/w
  Total Related Substance (% w/w) Initial: 0.16 % w/w
[2]; [3]
  Water (% w/w): 0.27 % w/w
[2]; [4]
  Water (% w/w): 0.59 % w/w
[2]; [5]
  Water (% w/w): 3.49 % w/w
[2]; [6]
  Water (% w/w): 2.01 % w/w
[2]; [7]
  Water (% w/w): 2.14 % w/w
[2]; [8]
  Water (% w/w): 1.22 % w/w
[2]; [9]
  Water (% w/w): 0.46 % w/w
[2]; [10]
  Water (% w/w): 4.94 % w/w
[2]; [11]
  Water (% w/w): 3.69 % w/w
[2]; [12]
  Water (% w/w): 0.46 % w/w
[2]; [13]
  Water (% w/w): 0.02 % w/w
[2]; [14]
  Water (% w/w): 0.52 % w/w
[2]; [15]
  Water (% w/w): 0.88 % w/w
[2]; [16]
  Water (% w/w): 3.02 % w/w
[2]; [17]
  Water (% w/w): 0.79 % w/w
[2]; [18]
  Water (% w/w): 1.43 % w/w
[2]; [19]
  Water (% w/w): 4.73 % w/w
[2]; [21]
  Water (% w/w): 0.12 % w/w
[2]; [22]
  Water (% w/w): 0.18 % w/w
